Data published in PubChem BioAssay (NCI).
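Five concentrations, 48 hours, 96-well plates. Here, GI50 denotes the concentration required for 50% inhibition of growth. TGI marks complete inhibition of growth.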

What was measured:
Experiment in all cases: growth of human tumour cells (NCI), 48 h
[1] = test system: OVCAR-4 ovarian
[2] = test system: A498 renal
[3] = test system: OVCAR-5 ovarian
[4] = test system: SNB-19 CNS
[5] = test system: CCRF-CEM leukemia
[6] = test system: EKVX NSCLC
[7] = test system: NCI-H226 lung
[8] = test system: K-562 leukemia
[9] = test system: LOX IMVI melanoma
[10] = test system: IGROV1 ovarian

SMILES | GI50 [1] [µM] | TGI [1] [µM] | GI50 [2] [µM] | TGI [2] [µM] | GI50 [3] [µM] | TGI [3] [µM] | GI50 [4] [µM] | TGI [4] [µM] | GI50 [5] [µM] | TGI [5] [µM] | GI50 [6] [µM] | TGI [6] [µM] | GI50 [7] [µM] | TGI [7] [µM] | GI50 [8] [µM] | TGI [8] [µM] | GI50 [9] [µM] | TGI [9] [µM] | GI50 [10] [µM] | TGI [10] [µM]
Cc1nn(Cc2ccccc2)cc1C(=O)Nc1sc2c(c1C(N)=O)CCC(=O)C2 | 1.47 | 3.45 | 3.97 | 28.2 | 1.92 | 4.3 | 3.33 | > 100 | 0.789 | 17.1 | 3.03 | 21.7 | 2.29 | 5.7 | 1.7 | 13.1 | 1.78 | 3.79 | 2.44 | 7.96
COc1cccc(N2CCN(c3ncnc4cc[nH]c34)CC2)c1 | 1.73 | > 100 | 1.65 | 79.3 | 43.6 | > 100 | > 100 | > 100 | 9.61 | > 100 | 0.94 | > 100 | 1.59 | 75.7 | 1.26 | > 100 | 13.9 | > 100 | 32.2 | > 100
COc1cc2c3cc1Oc1c(OC)c(OC)cc4c1[C@@H](Cc1ccc(O)c(c1)Oc1ccc(cc1)C[C@@H]3N(C)CC2)N(C)CC4 |  |  |  | 38.5 |  | > 100 |  | 45.3 |  | 45.2 |  | 31.3 |  | 44.8 |  | 33.5 |  | 34.6 |  | 36.9
O=C1C(Cl)=C(Nc2cc(Cl)ccc2O)C(=O)N1Cc1ccccc1 | 17.2 | 38.1 | 19.7 | 35.7 | 18.8 | 35.4 | 25.4 | > 61.2 | 12.5 | 54.9 | 21.3 | 50.5 | 8.66 | 21.9 | 23.7 | 65.3 | 16.7 | 32.2 | 5.53 | 26.4
O=C(CSC(c1ccccc1)c1ccccc1)N/N=C/c1ccccc1Cl | 11.3 | 77.2 | 7.2 | 59.9 | 10.7 | > 73.2 | 43.9 | > 100 | 17.4 | 43.2 | 2.75 | > 34.1 | > 33 | > 68.2 | 10.2 | 46.8 | 31.1 | > 100 | 8.07 | > 55.6
Cc1cc(Cl)ccc1N=C1NC(=O)C(CC(=O)Nc2cccc(C)c2C)S1 (stereo not given) |  | 69.2 |  | 50.5 |  | > 100 |  | 68.3 |  | > 100 |  | > 100 |  |  |  | > 100 |  | 80.6 |  | > 100
COc1ccc(/C=C2\COc3ccc(O)c(O)c3C2=O)cc1OC | 1.61 | 13.3 | 2.47 | 8.28 | 1.73 | 3.8 | 2.06 | 7.43 | 0.377 | 12.1 | 2.76 | 18.8 | 3.91 | 48.1 | 0.467 | > 100 | 1.12 | 2.54 | 0.84 | 3.53
C=C1C(=O)O[C@H]2[C@H]1CC/C(COC(=O)CCCCCCCC(=O)OC/C1=C/CC[C@@]3(C)O[C@H]3[C@H]3OC(=O)C(=C)[C@@H]3CC1)=C\CC[C@@]1(C)O[C@@H]21 | 4.58 | 20.1 | 12.3 | 28.7 | 2.48 | 7.01 | 4.85 | 19.2 | 0.476 | 7.49 | 2.55 | 8.87 | 2.63 | 6.97 | 0.927 | 10.8 | 1.48 | 2.95 | 2.22 | 5.92
CN(CCCN1C(=O)c2cccc3cc([N+](=O)[O-])cc(c23)C1=O)CCN(C)CCCN1C(=O)c2cccc3cc([N+](=O)[O-])cc(c23)C1=O |  | > 39.3 |  | > 39.3 |  | > 39.3 |  | > 39.3 |  | > 39.3 |  | > 39.3 |  | > 39.3 |  | > 39.3 |  |  |  | > 39.3
CCOC(=O)C(=O)Nc1c(C)cccc1C(C)(C)C |  | > 100 |  |  |  | > 100 |  | > 100 |  |  |  | > 100 |  | > 100 |  | > 100 |  | > 100 |  | > 100
C=C(C)C1CCC2=CC(CC3(C)OC3C3=CC(C(=O)OC)=C(C1)O3)OC2=O (stereo not given) |  |  |  | > 100 |  | > 100 |  | > 100 |  | > 100 |  | > 100 |  | > 100 |  | > 100 |  | > 100 |  | > 100
CC(C)(O)CCc1cccc(C(=O)c2cnn(-c3ccc(F)cc3)c2N)c1 | > 23.3 | > 25 | > 18.4 | > 25 | > 25 | > 25 | > 25 | > 25 | > 25 | > 25 |  |  | > 19.7 | > 25 | > 25 | > 25 | > 25 | > 25 | > 25 | > 25
CC(C)N1C(C)[C@@H](c2ccccc2)O[P@@]1(=O)CC1=CCCCC1 (stereo not given in full) |  |  |  | > 100 |  | > 100 |  |  |  | > 100 |  | > 100 |  | > 100 |  | > 100 |  | > 100 |  | > 100
O=[N+]([O-])c1cccc(S(=O)(=O)N/N=C/c2cc(I)cc([N+](=O)[O-])c2O)c1 |  | > 100 |  | > 100 |  | > 100 |  | 65.5 |  | 47.9 |  | 80 |  |  |  | 58.4 |  | 62.3 |  | > 100
Nn1c(-c2cccc(Cl)c2)nc2ccccc2c1=O |  | > 100 |  | > 100 |  | > 100 |  | > 100 |  | > 100 |  | > 100 |  | > 100 |  | > 100 |  |  |  | > 100
Cc1ccc(-c2c3c(nn2-c2ccc(S(=O)(=O)NC(=O)NC4CCCCC4)cc2)-c2ccccc2C3)cc1 | 18.2 | 39.7 |  | 20 | 29.2 | 70.3 | 20.1 | 49.7 |  |  | 11.8 | 25.4 | 20.4 | 47.3 | 3.1 | 13.5 | 1.82 | 3.73 | 12.9 | 27.9
CCOC(=O)/C(C#N)=C\Sc1ccccc1 |  | > 100 |  |  |  | 58.6 |  | > 100 |  | > 100 |  | > 100 |  | 43 |  | > 100 |  | 21.4 |  | 23.2

SMILES | GI50 [1] [µM] | TGI [1] [µM] | GI50 [2] [µM] | TGI [2] [µM] | GI50 [3] [µM] | TGI [3] [µM] | GI50 [4] [µM] | TGI [4] [µM] | GI50 [5] [µM] | TGI [5] [µM] | GI50 [6] [µM] | TGI [6] [µM] | GI50 [7] [µM] | TGI [7] [µM] | GI50 [8] [µM] | TGI [8] [µM] | GI50 [9] [µM] | TGI [9] [µM] | GI50 [10] [µM] | TGI [10] [µM]
O=C1c2ccn(CCCNC(CO)(CO)CO)c2C(=O)c2c1c(O)c1ccccc1c2O | 29.2 | > 51.2 |  |  |  | 13.5 | 36.3 | > 100 | 10 | 44 | 49.7 | > 100 | 60.7 | > 100 | 9.36 | 90.1 | 13.1 | 29.7 | 9.27 | 56.8
Cc1cc(-c2nc3n(c2/C=N/N=C(N)N)CCS3)c(C)s1 | 36.2 | > 100 | 18.5 | 33.6 | 14.9 | 29.8 | 17.2 | 35.3 | 12.7 | 37.1 | 15.2 | 34.6 | 18.7 | 37.9 | 19.1 | 42.4 | 15 | 29.1 |  | 
O=C1NC2(CCCCC2)C2CCCCC=C12 (stereo not given) |  | > 100 |  | > 100 |  | > 100 |  | > 100 |  | > 100 |  | > 100 |  |  |  | > 100 |  | > 100 |  | > 100
COc1cc([C@@H]2OC(=O)C3C2C(=O)O[C@H]3c2ccc(O)c(OC)c2)ccc1O (stereo not given in full) |  | > 100 |  | > 100 |  | > 100 |  | > 100 |  | > 100 |  |  |  | > 100 |  | > 100 |  | > 100 |  | > 100
O=C(COC(=O)c1cccc2c(=O)c3ccccc3[nH]c12)Nc1ccc(Cl)cc1 |  | > 100 |  | 60 |  |  |  | > 100 |  | > 100 |  | > 100 |  | > 100 |  | > 100 |  | > 100 |  | > 100
Cc1ccnc2c(NC(C)CCCN)cc(O)c(O)c12 (stereo not given) | 3.11 | 10.1 | 33.4 | > 100 | 13.1 | 40.7 |  |  | 4.62 | 29.3 | 21.3 | 61.8 | 27.7 | > 100 | 26.1 | > 100 | 9.69 | 74.9 | 12.5 | 32.9
O=C1CC(Cc2n[nH]c3c2CCCC3)CC(=O)N1 |  | > 100 |  | > 100 |  | > 100 |  |  |  | > 100 |  | > 100 |  | > 100 |  | > 100 |  | > 100 |  | > 100
O=C(NCc1ccco1)C1CCN(S(=O)(=O)c2ccc(Cl)cc2)CC1 | 54.9 | > 100 |  |  | > 100 | > 100 | > 100 | > 100 | 83.8 | > 100 |  |  | > 100 | > 100 | 39.2 | > 100 | 36.3 | > 100 | > 100 | > 100
COC(=O)c1ccc(NC(=O)c2ccc(NC3=C(Cl)C(=O)N(Cc4ccccc4)C3=O)cc2)cc1 | 27 | 60.9 | 28.4 | 58.6 | 21.5 | 39 | 16.5 | 30.4 |  |  | 45.4 | > 100 | 22 | 40.6 | 19 | > 100 | 13.3 | 26 | 1.53 | 11.2
COc1cccc2c(SCC(=O)Nc3ccccc3-c3ccccc3NC(=O)CSc3c4ccccc4nc4c(OC)cccc34)c3ccccc3nc12 |  | > 100 |  |  |  | > 100 |  | > 100 |  | > 100 |  | 95 |  | > 100 |  | > 100 |  |  |  | > 100
COc1ccc2c(CCCc3ccc(Cl)cc3Cl)c3[n+](cc2c1OC)CCc1cc2c(cc1-3)OCO2 | 0.337 | 1.59 | 1.76 | 9 | 1.13 | 2.62 |  |  |  |  | 0.467 | 1.99 |  |  |  |  | 0.37 | 1.44 |  | 
NC(=O)C(=O)C1C(=O)N(c2ccccc2)N=C1N (stereo not given) |  | > 100 |  |  |  | > 100 |  | > 100 |  |  |  |  |  | > 100 |  | > 100 |  | > 100 |  | > 100
O=C(N=Nc1c(Cl)c(O)c2ccccc2c1O)C(=O)Nc1cccc(C(F)(F)F)c1 | 6.03 | 26.9 | 9.13 | 23.6 | 14.7 | 28.6 | 4.6 | 17.6 | 2.84 | 8.77 |  |  | 6.78 | 28.2 | 3.94 | 25.6 | 1.97 | 5.09 | 2.99 | 21.4
CCn1cc(C(=O)N/N=C/c2cccs2)c(=O)c2cc(F)c(N3CCNC(C)C3)c(F)c21 (stereo not given) | 1.96 | 3.97 | 3.64 | 21.1 | 1.59 | 2.97 | 1.61 | 2.96 |  |  | 1.47 | 2.93 |  |  |  |  |  |  |  | 
C[C@]12CC(C=O)C(=O)C(O)=C1CC[C@@H]1C2CC[C@@]2(C)C1CC[C@]2(C)O (stereo not given in full) |  | 34.8 |  | 45.9 |  | 32.6 |  | 63.5 |  |  |  | 96 |  | 39.5 |  | > 100 |  | 24.7 |  | 47.5
C=CCC(N[C@H](CO)c1ccccc1)c1ccccn1 (stereo not given in full) | > 100 | > 100 | > 100 | > 100 | > 100 | > 100 |  |  | > 100 | > 100 | > 100 | > 100 | > 100 | > 100 | > 100 | > 100 | > 100 | > 100 | 88.2 | > 100
CN(C)N=Nc1cccc(C(N)=O)c1 |  | > 100 |  | > 100 |  |  |  | > 100 |  | > 100 |  | > 100 |  | > 100 |  | > 100 |  |  |  | > 100
